In patent US20070208074A1, “Methods and compositions for treating and preventing tumors” (priority 2006, published 2007):

Key:
U87-S3C cells = assay: Cell spreading assay on myelin; format: cell-based; conditions: recombinant human IL-8 50 ng/ml vs untreated U87-S3C cells on myelin; n=3, p<0.0005
Experimental: FIG. 4I is a graph quantifying the level of normalized cell spreading. IL-8 addition rescues STAT3 suppression of glioma cell spreading on myelin.
1×10^4 cells were seeded onto glass coverslips pre-coated with polyornithine ([…]) and additionally coated with PBS or 20 μg/ml myelin. Where indicated recombinant human IL-8 (R&D) was added at a concentration of 50 ng/ml. Cells were incubated at 37° C. for 1 hour to attach and then fixed with 4% paraformaldehyde for 20 minutes at RT. Coverslips were stained with phallotoxin for 20 minutes according to the manufacturer's directions (Molecular probes). Nuclei were counterstained with 0.2 μg/ml Hoechst (Sigma). Spread versus unspread cells were counted blind, and a percentage of spread cells over the total number of cells calculated. Pictures were taken at 60× using a Nikon inverted microscope.

SF188 cells = assay: Growth curve / population growth with LIF; format: cell-based, human
Experimental: (§1) FIG. 2B is a series of graphs showing growth curves of PTEN-mutant glioma cell lines (U87 and A172) and PTEN-expressing (SF188) glioma cells lines that were treated with LIF (10 ng/ml daily) or left untreated.
FIG. 2C is a bar graph showing the population growth of SF188 cells infected with a retrovirus containing an IRES-GFP cassette alone or that also encodes wild type STAT3 or a dominant negative STAT3 (S3D).

[1] = system: wild type PTEN-expressing glioma cells (SF188 and LN229); assay: LIF-induced STAT3 tyrosine phosphorylation, immunoblot; format: cell-based, human; conditions: serum starved 24 hours, 10 ng/ml LIF for 15 minutes
Experimental: (§2) FIG. 2A is a series of immunoblots showing the levels of PYS3 and STAT3 in glioma cells that harbor PTEN mutations (U87, A172, and U138) or that express wild type PTEN (SF188 and LN229) with the STAT3 and PYS3 antibodies. Cells were serum starved for 24 hours and then treated with 100 ng/ml CNTF (C) or 10 ng/ml LIF (L) for 15 minutes.
(§3) The inhibition of the STAT3 signaling pathway was also evident in human glioma cell lines that harbor PTEN mutations.

[2] = system: PTEN-deficient glioma cells (U87, A172, and U138); assay: as above; format: cell-based, human; conditions: serum starved 24 hours, 10 ng/ml LIF for 15 minutes
Experimental: as §2, §3

LN229 cells = assay: Population growth with LIF after lentiviral infection; format: cell-based, human; conditions: LIF 10 ng/ml daily; control lentivirus-infected LN229; n=3, p<0.05
Text: FIG. 2D is a pair of immmunoblots showing STAT3 and actin levels in 293T cells infected with either control lentivirus or lentivirus encoding one of two small interfering hairpin RNAs directed at STAT3 and selected with puromycin (left panel). […] The right panel is a graph showing population growth of LN229 cells infected with control lentivirus or lentivirus encoding stat3i1 or stat3i2 and selected with puromycin.
Recombinant retroviruses were made by transfecting 293T cells with pMD.MLV gag.pol, pHDM.G (VSVG pseudotype), and the transfer plasmid (i.e. pBABE). Cells were infected with equal amounts of retroviruses in the presence of 8 μg/ml polybrene (Sigma). A population of infected cells for each construct was collected by sorting cells for GFP expression. PTEN−/− astrocytes were infected with pBABE or pBABE/S3C retroviruses and infected cells were selected with puromycin (4 μg/ml). PTEN flox/flox astrocytes were infected with MyrAkt and infected cells were selected with 250 μg/ml hygromycin (Invitrogen). Cloning of recombinant lentiviruses coding for a short hairpin RNA directed against STAT3 or human IL-8 was carried out using the pLL3.7 vector. […]

U87 cells = assay: Growth curve with LIF; format: cell-based, human; conditions: LIF 10 ng/ml daily; PTEN-deficient cell line
Experimental: as §1

A172 cells = assay: Growth curve with LIF; format: cell-based, human; conditions: LIF 10 ng/ml daily; PTEN-deficient cell line
Experimental: as §1

[3] = system: control neuroblastoma cell line SK-N-MC; assay: LIF-induced STAT3 tyrosine phosphorylation, immunoblot; format: cell-based; conditions: serum starved 24 hours, 10 ng/ml LIF for 15 minutes
rat neural stem cells = assay: BrdU incorporation with LIF; format: cell-based; conditions: LIF 10 ng/ml, 48 hrs; vector-infected cells vs no treatment; n=3, p<0.05
Experimental: FIG. 2E (right panel) is a bar graph showing BrdU incorporation in rat neural stem cells treated with LIF (10 ng/ml, 48 hrs) following infection with lentivirus and selection with puromycin.

Substance | cell spreading on myelin (U87-S3C cells) | cell population growth (SF188 cells; LIF 10 ng/ml daily vs untreated, n=3, p<0.05) | population growth (SF188 cells; LIF 10 ng/ml daily, SF188 infected with control-vector or wild type STAT3 retrovirus, n=3, p<0.01) | STAT3 tyrosine phosphorylation [1] | STAT3 tyrosine phosphorylation [2] | population growth (LN229 cells) | proliferation (U87 cells) | proliferation (A172 cells) | STAT3 tyrosine phosphorylation [3] | BrdU incorporation (rat neural stem cells)
IL-8: recombinant human IL-8 (R&D) added at 50 ng/ml | significantly more U87-S3C cells spread on myelin |  |  |  |  |  |  |  |  | 
LIF: cytokine ligand of leukemia inhibitory factor receptorβ (LIFRβ), used at 10 ng/ml |  | significantly reduced | significant reduction in population growth | robustly induced STAT3 tyrosine phosphorylation | failed to effectively induce the STAT3 phosphorylation | significant reduction in growth | little effect on the proliferation | little effect on the proliferation | robustly induced STAT3 tyrosine phosphorylation | significantly less BrdU incorporation
